Data on one sequence can be found in patent publication US10201610B2, “Interference peptides and use thereof” (The University of Western Australia, priority 2014, dated 2019).

Ends that are not written are not given here.

In one test the target is T1, PAX6 (Homo sapiens, UniProt P26367).
T1 construct: endogenous in cells; host or cells: SUM149PT total protein extract
Nature of the test: Immunoprecipitation and western blotting of TFHDs from SUM149PT extracts. Format: binding. Particulars: versus control peptide. From the text:
(§1) To investigate the binding partners of the iPeps in cancer cells, the inventors carried out affinity capture immunoprecipitation experiments using the biotinylated active iPep624 as bait, and the iPep624ΔHEX as negative control. They used total protein extracts from SUM149PT cells to capture endogenous proteins able to bind these peptides in vitro. Elutes were loaded in a 1D-SDS PAGE gel to visualize the enrichment of individual proteins. […] In addition, overexpression of EN1 cDNA into two different breast cell lines confirmed the interaction of the full length EN1 with the endogenous EPRS inside the cells (FIG. 6c). To ascertain whether some downstream well-known effectors of EPRS were also differentially regulated by the iPeps, we performed real time PCR to detect mRNA levels of COLA1, COLA2, S1004A and DDIT3 (CHOP). […] COLA1 and COLA2 encode collagen proteins highly enriched by the amino acid proline and S1004A is a protein involved in metastasis and fibrosis. […] In contrast, the amino acid stress factor DDIT3 is stimulated upon EPRS inhibition. […]
(§2) The iPep624 and iPep624ΔHEX were coupled to a C-terminal biotin and immobilized in streptavidin-coated beads. […] Detection was performed with ECL Detection System (GE Healthcare) and quantitated using Image J v1.46 (ImageJ, NCBI).
For orientation: In western blotting, separated proteins are transferred to a membrane and probed.

In test [1] the test system is SUM149PT cells overexpressing the EN1 cDNA (SUM149PT-EN1). Nature of the test: Cell Titer Glo cell viability assay in SUM149PT cells overexpressing the EN1 cDNA. Format: cell-based, human. Particulars: iPep624 72 hours. As to the method: In the neural system it has been proposed that EN1 protects neurons from mitochondrial complex I insults. Likewise, the inventors investigated whether EN1 could play a similar role in the basal-like breast cancer cell lines. The EN1 cDNA was overexpressed in SUM149PT cells using a lentiviral vector, and the transduced cells were treated with increasing concentrations of rotenone, a mitochondrial complex I toxin, and taxol, a […].
Plasmids expressing the EN1 cDNA (Genecopoeia, vector EX-T1021-Lv07) or EN1 shRNAs (Open Biosystems, pLKO-EN1) were transfected with Gagpol-, VSVG-, and RSV-REV-coding plasmids in HEK 293T cells using Lipofectamine and Plus Reagent cationic lipids (Invitrogen, Carlsbad, Calif.) and transduction of breast cells was performed as described in Beltran, A. S. et al. Breast Cancer Res 13, R94 (2011).
(§3) All peptides were synthetized at the UNC High-Throughput Peptide Synthesis and Array Facility at UNC. Taxol, Rotenone and Halofuginone (Sigma-Aldrich, St Louis, Mo.) were dissolved in DMSO. A total of […] or 1×10^3 breast cells for peptide and drug treatment respectively, were seeded in 96-well plates. Cells were exposed for 8 hours to the peptide and 48 to 72 hours for drug treatment. The cell viability after peptide/drug treatment was assayed with the Cell Titer Glo (CTG) assay (Promega, Madison, Wis., USA).

For test [2], the target named is T2, Glutamyl-Prolyl tRNA synthetase (EPRS) (Homo sapiens, UniProt P07814).
T2 construct: endogenous in cells; host or cells: SUM149PT total protein extract
Nature of the test: Affinity capture immunoprecipitation with biotinylated iPeps, EPRS detection. Format: binding. Particulars: biotinylated iPep as bait, versus control peptide iPep624ΔHEX.
Source text: To investigate the binding partners of the iPeps in cancer cells, the inventors carried out affinity capture immunoprecipitation experiments using the biotinylated active iPep624 as bait, and the iPep624ΔHEX as negative control. They used total protein extracts from SUM149PT cells to capture endogenous proteins able to bind these peptides in vitro. Elutes were loaded in a 1D-SDS PAGE gel to visualize the enrichment of individual proteins. […] In addition, overexpression of EN1 cDNA into two different breast cell lines confirmed the interaction of the full length EN1 with the endogenous EPRS inside the cells (FIG. 6c). […]
as §2
Proteins were eluted from the streptavidin beads coated with biotinylated iPep624 or iPep624ΔHEX, resuspended with SDS PAGE sample buffer and applied to SDS-PAGE (10% acrylamide; FIG. 10). Gels were stained with Coomassie brilliant blue and select bands unique to the EN1 immunoprecipitates were excised, digested with trypsin, and the peptides were extracted and analyzed using a MALDI-TOF/TOF mass spectrometer (AB Sciex 4800 Plus). […]

The test system of test [3] is PBX family members (notably, PBX1). In words: Immunoprecipitation and western blotting of TFHDs from SUM149PT extracts. Particulars: versus control peptide. Format: binding, human.
Source text: as §1, §2

The next test has as its system SUM149PT cells. In words: cells. Format: cell-based, human.
Source text: The EN1-iPeps and iPep controls were first tested in SUM149PT cells carrying high EN1 expression. Cells were first treated with a full-length 29-mer peptide (iPep624) comprising the N-terminal, less conserved amino acid sequences, the hexamotif, and the C-terminal tail. As a control, the inventors generated the iPep624ΔHEX in which the hexamotif was mutated from the wild type (wt) WPAWVY (SEQ ID NO: 13) to the GAAGAG (SEQ ID NO: 15) sequence. These mutations were expected to dramatically abolish the activity of the peptide. Both peptides were included in the culture medium of the basal cancer cells in increasing (0-100 μM) concentrations and incubated for 8 hours at 37° C. Treated cells were first analyzed using the Cell Titer Glo assay, which monitors metabolic viability. […] This calculated value of IC50 is in the range of concentrations observed with other peptides delivered with CPPs.
as §3

T1 sequence (P26367 whole entry): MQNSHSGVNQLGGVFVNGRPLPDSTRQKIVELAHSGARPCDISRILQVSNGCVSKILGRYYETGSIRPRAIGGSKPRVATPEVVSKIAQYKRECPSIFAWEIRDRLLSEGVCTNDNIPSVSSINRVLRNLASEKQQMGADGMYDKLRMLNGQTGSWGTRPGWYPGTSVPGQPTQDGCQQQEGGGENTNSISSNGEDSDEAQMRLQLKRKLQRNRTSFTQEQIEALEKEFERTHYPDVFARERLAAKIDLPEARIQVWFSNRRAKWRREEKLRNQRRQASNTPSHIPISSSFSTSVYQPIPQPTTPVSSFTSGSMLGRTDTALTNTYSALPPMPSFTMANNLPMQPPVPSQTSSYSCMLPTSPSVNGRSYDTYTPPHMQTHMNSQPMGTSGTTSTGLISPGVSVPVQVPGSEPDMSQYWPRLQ
T2 sequence (P07814 whole entry): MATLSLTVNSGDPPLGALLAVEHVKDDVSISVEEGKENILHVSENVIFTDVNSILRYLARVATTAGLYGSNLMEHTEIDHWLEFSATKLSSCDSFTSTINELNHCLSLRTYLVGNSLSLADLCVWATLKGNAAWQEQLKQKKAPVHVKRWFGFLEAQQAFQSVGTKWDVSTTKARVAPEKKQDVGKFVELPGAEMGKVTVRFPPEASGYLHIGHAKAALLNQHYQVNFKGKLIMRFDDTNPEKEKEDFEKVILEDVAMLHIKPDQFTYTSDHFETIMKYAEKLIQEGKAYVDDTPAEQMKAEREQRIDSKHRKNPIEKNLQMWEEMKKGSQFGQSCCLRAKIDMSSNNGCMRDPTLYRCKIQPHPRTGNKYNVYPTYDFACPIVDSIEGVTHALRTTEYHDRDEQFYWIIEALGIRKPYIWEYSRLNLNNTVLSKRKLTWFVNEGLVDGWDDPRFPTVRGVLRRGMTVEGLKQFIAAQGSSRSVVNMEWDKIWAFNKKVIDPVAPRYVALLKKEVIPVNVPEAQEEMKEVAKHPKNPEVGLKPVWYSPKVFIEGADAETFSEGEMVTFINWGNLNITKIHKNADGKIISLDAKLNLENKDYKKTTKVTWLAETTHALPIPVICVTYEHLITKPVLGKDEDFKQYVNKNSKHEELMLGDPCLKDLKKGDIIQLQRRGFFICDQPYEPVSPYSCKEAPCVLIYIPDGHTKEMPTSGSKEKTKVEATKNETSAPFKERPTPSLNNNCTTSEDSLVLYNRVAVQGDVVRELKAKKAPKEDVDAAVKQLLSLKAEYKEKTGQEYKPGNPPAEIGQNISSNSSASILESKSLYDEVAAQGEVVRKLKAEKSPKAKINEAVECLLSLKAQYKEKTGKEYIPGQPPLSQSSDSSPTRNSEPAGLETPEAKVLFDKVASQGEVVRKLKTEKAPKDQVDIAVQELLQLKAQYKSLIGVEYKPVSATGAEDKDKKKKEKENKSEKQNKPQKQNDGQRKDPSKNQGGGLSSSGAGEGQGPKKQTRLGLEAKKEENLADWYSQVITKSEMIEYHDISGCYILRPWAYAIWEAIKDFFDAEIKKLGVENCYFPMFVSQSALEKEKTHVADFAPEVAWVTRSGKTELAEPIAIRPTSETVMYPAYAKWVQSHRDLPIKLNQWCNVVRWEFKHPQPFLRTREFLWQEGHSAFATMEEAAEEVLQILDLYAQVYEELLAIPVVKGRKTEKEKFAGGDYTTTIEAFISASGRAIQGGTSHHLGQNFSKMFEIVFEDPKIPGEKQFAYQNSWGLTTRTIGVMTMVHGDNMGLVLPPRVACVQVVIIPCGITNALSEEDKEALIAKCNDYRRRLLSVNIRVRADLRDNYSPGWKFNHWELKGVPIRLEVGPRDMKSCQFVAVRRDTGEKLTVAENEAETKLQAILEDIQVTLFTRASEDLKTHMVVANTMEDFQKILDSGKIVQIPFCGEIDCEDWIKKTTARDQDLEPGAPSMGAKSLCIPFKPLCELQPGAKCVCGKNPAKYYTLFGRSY

In the case of KKKRKVTDSQQPLVWPAWVYCTRYSDRPS [iPep624], at PAX6, the “interaction with PAX6” value is on record as “specific interactions”. For the same sequence, in test [1], the “cell viability defect after ectopic transfection of the EN1 cDNA” value was “rescued”. In addition, the “binding of EPRS from SUM149PT extracts” value in test [2] is “preferential binding interaction”. Moreover, in test [3], the “interaction with PBX family members (notably, PBX1)” value is reported as “specific interactions”. In the test with SUM149PT cells (8 h), this sequence showed an IC50 of 17.5 µM. The cell viability result in the test on SUM149PT cells (SUM149PT, 0-100 μM peptide, 8 hours) is “decreased cell viability”. The sensitization to halofuginone entry in the test with SUM149PT cells (SUM149PT, co-treatment with 500 nM iPep) is recorded as “sensitized even more the basal-like breast cancer cells to halofuginone”. Moreover, the “breast cancer cell death” value with SUM149PT cells (SUM149PT, single agent) is reported as “induced very potent breast cancer cell death”.

As a reminder, the IC50 is the concentration that inhibits the measured activity by half. High values mean lower potency, low ones higher potency.
